Holding throughout (assay type): cell-based
One assay addresses T1, WIZ (Homo sapiens, UniProt O95785+Q96SW2).
T1 construct: HUDEP-2 cells engineered to express a HiBiT tag in either the WIZ (Widely interspaced zinc finger) or ZBTB7A
As to the kind of experiment: HUDEP-2 WIZ HiBiT degradation assay. Particulars: HiBiT-tagged WIZ degradation in HUDEP-2 cells, 24 hours of treatment; read-out: WIZ EC50. Put shortly:
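HiBiT-tagged HUDEP-2 cells at 1.0×10^6 cells/ml in SFEM II with SCF, EPO, dexamethasone and doxycycline, treated 24 h at 37 °C with a 10-point series ([…]). Luminescence after HiBiT lytic detection, normalized to DMSO; EC50 and Y-min from fitted curves.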
Background: With HiBiT, luminescence reflects the tagged protein that the partner subunit can reach.

The next assay concerns the target T2, ZBTB7A (Homo sapiens, UniProt O95365+Q96SW2).
T2 construct: HUDEP-2 cells engineered to express a HiBiT tag in either the WIZ (Widely interspaced zinc finger) or ZBTB7A
As to the kind of experiment: HUDEP-2 ZBTB7A HiBiT degradation assay. Conditions: HiBiT-tagged ZBTB7A degradation in HUDEP-2 cells, 24 hours of treatment; read-out: ZBTB7A EC50. Put shortly: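 HiBiT-tagged HUDEP-2 cells were pre-cultured 48 h in IMDM with EPO, SCF, doxycycline and 5% human plasma, then exposed to compounds at 1.0×10^6 cells/ml for 24 h at 37 °C. Nano-Glo HiBiT lytic luminescence, normalised to DMSO over 10 concentrations, gave EC50 and Y-min.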

The test system of the next assay is HbF. Nature of the assay: HbF HiBiT induction assay in HUDEP-2 cells. Particulars: HUDEP-2 cells with HiBiT tag in HBG1/2, 72 hours of treatment; area under the dose response curve, higher AUC = greater HbF induction. Put shortly: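 HUDEP-2 cells carrying a HiBiT tag on HBG1/2 were exposed to compounds for 72 h at 37° C, 5% CO2, in IMDM with EPO, hSCF, DOX, transferrin, insulin, heparin and 5% human plasma. HiBiT luminescence was read after lytic detection; HbF induction is expressed as dose-response AUC, alongside EC50 and Ymax.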

T1 sequence (O95785 whole entry): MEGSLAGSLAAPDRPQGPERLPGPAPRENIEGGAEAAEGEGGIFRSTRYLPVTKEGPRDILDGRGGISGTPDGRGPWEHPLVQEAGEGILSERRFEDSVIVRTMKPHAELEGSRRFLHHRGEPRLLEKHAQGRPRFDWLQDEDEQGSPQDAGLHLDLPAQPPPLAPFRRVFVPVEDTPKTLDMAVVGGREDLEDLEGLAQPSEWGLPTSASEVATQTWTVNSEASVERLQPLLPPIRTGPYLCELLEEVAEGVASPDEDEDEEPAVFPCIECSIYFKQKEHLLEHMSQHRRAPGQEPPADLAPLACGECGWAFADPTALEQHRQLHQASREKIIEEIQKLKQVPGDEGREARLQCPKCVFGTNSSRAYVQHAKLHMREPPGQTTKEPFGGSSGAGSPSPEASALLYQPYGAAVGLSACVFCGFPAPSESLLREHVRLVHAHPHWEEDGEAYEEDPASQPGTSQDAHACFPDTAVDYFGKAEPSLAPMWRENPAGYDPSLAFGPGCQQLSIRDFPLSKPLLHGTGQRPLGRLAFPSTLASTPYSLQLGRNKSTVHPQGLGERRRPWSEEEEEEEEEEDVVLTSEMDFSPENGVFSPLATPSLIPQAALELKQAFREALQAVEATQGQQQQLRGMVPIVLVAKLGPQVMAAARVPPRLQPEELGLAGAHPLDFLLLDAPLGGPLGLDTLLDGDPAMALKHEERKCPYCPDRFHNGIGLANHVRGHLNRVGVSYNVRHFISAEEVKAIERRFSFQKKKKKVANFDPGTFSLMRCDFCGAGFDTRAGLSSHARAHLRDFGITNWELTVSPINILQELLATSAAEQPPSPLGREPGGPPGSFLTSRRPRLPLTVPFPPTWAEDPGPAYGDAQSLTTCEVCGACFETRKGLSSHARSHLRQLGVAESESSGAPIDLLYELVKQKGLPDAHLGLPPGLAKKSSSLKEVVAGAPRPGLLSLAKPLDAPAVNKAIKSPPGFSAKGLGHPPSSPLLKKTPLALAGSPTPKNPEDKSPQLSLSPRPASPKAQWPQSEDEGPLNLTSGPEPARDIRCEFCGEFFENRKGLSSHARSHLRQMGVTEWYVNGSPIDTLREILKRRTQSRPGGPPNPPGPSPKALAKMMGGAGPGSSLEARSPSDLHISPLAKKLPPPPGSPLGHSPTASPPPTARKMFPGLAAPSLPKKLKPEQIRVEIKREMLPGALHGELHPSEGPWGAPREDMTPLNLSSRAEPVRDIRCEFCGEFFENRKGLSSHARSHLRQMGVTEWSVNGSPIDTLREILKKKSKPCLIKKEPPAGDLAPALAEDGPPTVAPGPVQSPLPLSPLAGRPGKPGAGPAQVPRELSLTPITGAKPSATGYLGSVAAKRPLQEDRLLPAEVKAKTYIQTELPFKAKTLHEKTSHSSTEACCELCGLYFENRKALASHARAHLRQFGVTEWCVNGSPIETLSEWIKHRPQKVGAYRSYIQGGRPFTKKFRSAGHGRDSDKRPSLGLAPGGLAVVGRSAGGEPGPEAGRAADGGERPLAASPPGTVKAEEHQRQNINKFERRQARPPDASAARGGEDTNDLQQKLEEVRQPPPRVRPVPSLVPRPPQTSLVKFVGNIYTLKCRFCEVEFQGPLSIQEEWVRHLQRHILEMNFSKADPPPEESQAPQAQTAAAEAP
T1 sequence (Q96SW2 whole entry): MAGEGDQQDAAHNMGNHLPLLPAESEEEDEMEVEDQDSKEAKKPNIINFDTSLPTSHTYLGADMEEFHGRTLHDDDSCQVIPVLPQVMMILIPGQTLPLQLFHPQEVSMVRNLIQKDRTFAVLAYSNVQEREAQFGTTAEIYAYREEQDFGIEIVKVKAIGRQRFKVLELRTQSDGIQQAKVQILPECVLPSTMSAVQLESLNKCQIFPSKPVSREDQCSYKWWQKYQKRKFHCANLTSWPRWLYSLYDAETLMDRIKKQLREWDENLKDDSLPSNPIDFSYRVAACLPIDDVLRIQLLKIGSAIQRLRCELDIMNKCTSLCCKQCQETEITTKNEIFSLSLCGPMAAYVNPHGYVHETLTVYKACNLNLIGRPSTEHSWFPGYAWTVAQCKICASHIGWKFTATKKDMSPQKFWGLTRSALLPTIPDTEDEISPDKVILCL
T1 sequence (Q16531 whole entry partner): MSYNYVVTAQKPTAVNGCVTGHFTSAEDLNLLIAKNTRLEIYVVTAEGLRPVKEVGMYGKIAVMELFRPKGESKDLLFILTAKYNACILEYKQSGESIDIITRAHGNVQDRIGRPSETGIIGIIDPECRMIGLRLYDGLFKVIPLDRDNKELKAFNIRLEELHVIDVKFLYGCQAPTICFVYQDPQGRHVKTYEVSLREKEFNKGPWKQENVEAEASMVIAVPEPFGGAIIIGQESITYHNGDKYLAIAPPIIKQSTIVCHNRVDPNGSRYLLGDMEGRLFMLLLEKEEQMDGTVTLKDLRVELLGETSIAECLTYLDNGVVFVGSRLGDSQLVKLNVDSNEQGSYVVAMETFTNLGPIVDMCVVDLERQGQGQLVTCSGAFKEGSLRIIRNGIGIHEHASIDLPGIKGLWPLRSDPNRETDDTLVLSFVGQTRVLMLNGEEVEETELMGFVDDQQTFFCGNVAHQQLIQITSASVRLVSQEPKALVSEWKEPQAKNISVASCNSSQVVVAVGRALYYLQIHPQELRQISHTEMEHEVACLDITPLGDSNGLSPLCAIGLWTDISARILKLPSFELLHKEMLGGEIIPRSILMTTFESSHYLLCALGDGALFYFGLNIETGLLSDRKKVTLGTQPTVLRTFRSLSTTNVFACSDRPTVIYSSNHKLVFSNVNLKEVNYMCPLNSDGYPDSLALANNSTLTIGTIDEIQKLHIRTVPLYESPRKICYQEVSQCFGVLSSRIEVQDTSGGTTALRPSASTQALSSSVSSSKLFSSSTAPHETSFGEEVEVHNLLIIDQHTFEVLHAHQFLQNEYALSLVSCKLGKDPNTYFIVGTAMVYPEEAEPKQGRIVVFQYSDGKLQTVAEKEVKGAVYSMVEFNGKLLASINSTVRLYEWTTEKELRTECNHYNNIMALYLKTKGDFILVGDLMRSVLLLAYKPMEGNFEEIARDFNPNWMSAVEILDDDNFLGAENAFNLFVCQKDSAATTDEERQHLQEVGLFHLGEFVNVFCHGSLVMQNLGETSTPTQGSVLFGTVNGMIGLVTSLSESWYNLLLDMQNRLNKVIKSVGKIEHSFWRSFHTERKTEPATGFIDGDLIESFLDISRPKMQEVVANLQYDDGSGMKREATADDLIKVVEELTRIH
T2 sequence (O95365 whole entry): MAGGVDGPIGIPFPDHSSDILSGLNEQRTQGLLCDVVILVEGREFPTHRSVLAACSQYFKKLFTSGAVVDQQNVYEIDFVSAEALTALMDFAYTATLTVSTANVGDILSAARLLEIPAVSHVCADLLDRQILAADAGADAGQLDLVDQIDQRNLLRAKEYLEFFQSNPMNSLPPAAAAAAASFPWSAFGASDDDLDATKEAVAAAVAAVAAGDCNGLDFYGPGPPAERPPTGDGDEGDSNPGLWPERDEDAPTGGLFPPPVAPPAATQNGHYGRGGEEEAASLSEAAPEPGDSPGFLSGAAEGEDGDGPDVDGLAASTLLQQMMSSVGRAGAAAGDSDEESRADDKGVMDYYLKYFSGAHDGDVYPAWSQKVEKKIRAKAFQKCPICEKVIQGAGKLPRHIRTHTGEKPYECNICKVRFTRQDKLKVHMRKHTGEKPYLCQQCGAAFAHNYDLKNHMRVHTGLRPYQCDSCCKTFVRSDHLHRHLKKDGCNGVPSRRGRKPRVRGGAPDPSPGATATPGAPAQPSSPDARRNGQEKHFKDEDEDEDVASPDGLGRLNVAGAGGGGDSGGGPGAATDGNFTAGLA
T2 sequence (Q96SW2 whole entry): as the sequence (Q96SW2 whole entry) above
T2 sequence (Q16531 whole entry partner): as the sequence (Q16531 whole entry partner) above

`CC(=O)N1CCCC(c2cc3c(cc2Nc2cccc4c2C(=O)N([C@H]2CCC(=O)NC2=O)C4=O)N(C)C(=O)CO3)C1` (stereo partly drawn) [Compound 63, 4-((7-(1-acetylpiperidin-3-yl)-4-methyl-3-oxo-3,4-dihydro-2H-benzo[b][1,4]oxazin-6-yl)amino)-2-((S)-2,6-dioxopiperidin-3-yl)isoindoline-1,3-dione]: the DC50 was 16 nM at WIZ and 14 nM at ZBTB7A. Also, the “HBF AUC” value in the assay with HbF was “++ (++ = 100 ≤ AUC < 150)”.

With `CCOc1nccc(-c2cc3c(cc2Nc2cccc4c2C(=O)N(C2CCC(=O)NC2=O)C4=O)N(C)C(=O)CO3)c1C` (stereo not drawn) [Compound 64, 2-(2,6-dioxopiperidin-3-yl)-4-((7-(2-ethoxy-3-methylpyridin-4-yl)-4-methyl-3-oxo-3,4-dihydro-2H-benzo[b][1,4]oxazin-6-yl)amino)isoindoline-1,3-dione], the DC50 stood at 12 nM at WIZ and 53 nM at ZBTB7A. Also, in the assay on HbF, the “HBF AUC” value is recorded as “++ (++ = 100 ≤ AUC < 150)”.

As to `COc1nccc(-c2cc3oc(=O)n(C)c3cc2Nc2cccc3c2C(=O)N(C2CCC(=O)NC2=O)C3=O)c1F` (stereo not drawn) [Compound 65, 2-(2,6-dioxopiperidin-3-yl)-4-((6-(3-fluoro-2-methoxypyridin-4-yl)-3-methyl-2-oxo-2,3-dihydrobenzo[d]oxazol-5-yl)amino)isoindoline-1,3-dione], the DC50 on WIZ was 41 nM; at ZBTB7A, 96 nM. Moreover, the “HBF AUC” value with HbF is “+ (+ = 15 ≤ AUC < 100)”.

Consider `CNc1cc(-c2cc3c(cc2Nc2cccc4c2C(=O)N(C2CCC(=O)NC2=O)C4=O)N(C)C(=O)CO3)cc(C)n1` (stereo not drawn) [Compound 66, 2-(2,6-dioxopiperidin-3-yl)-4-((4-methyl-7-(2-methyl-6-(methylamino)pyridin-4-yl)-3-oxo-3,4-dihydro-2H-benzo[b][1,4]oxazin-6-yl)amino)isoindoline-1,3-dione], for which the results for the DC50 at WIZ and at ZBTB7A were 15 nM and 188 nM, respectively. For the same compound, in the assay with HbF, the “HBF AUC” value is reported as “++ (++ = 100 ≤ AUC < 150)”.

With `Cc1cc(-c2c(Nc3cccc4c3C(=O)N([C@H]3CCC(=O)NC3=O)C4=O)cc3c(c2F)OCC(=O)N3C)c(F)cn1` [Compound 67, 2-((S)-2,6-dioxopiperidin-3-yl)-4-((8-fluoro-7-(5-fluoro-2-methylpyridin-4-yl)-4-methyl-3-oxo-3,4-dihydro-2H-benzo[b][1,4]oxazin-6-yl)amino)isoindoline-1,3-dione], the DC50 on WIZ is 17 nM; at ZBTB7A, 25 nM. The “HBF AUC” value in the assay on HbF is reported as “++ (++ = 100 ≤ AUC < 150)”.

With `CN1C(=O)COc2cc([C@H]3CC[C@H](C#N)CC3)c(Nc3cccc4c3C(=O)N([C@H]3CCC(=O)NC3=O)C4=O)cc21` [Compound 68, (1S,4r)-4-(6-((2-((S)-2,6-dioxopiperidin-3-yl)-1,3-dioxoisoindolin-4-yl)amino)-4-methyl-3-oxo-3,4-dihydro-2H-benzo[b][1,4]oxazin-7-yl)cyclohexane-1-carbonitrile], the values for the DC50 at WIZ and at ZBTB7A were 3 nM and 6 nM, respectively. Also, the “HBF AUC” value in the assay with HbF is “+++ (+++ = AUC ≥ 150)”.

On to `Cc1cncc(-c2c(Nc3cccc4c3C(=O)N([C@H]3CCC(=O)NC3=O)C4=O)cc3c(c2F)OCC(=O)N3C)c1` [Compound 69, (S)-2-(2,6-dioxopiperidin-3-yl)-4-((8-fluoro-4-methyl-7-(5-methylpyridin-3-yl)-3-oxo-3,4-dihydro-2H-benzo[b][1,4]oxazin-6-yl)amino)isoindoline-1,3-dione], for which the results for the DC50 at WIZ and on ZBTB7A were 20 nM and 54 nM, respectively. The “HBF AUC” value in the assay on HbF was “+ (+ = 15 ≤ AUC < 100)”.

For `Cc1cc(-c2cc3c(cc2Nc2cccc4c2C(=O)N([C@H]2CCC(=O)NC2=O)C4=O)N(C)C(=O)OC3C)ccn1` (stereo partly drawn) [Compound 70, 4-((1,4-dimethyl-6-(2-methylpyridin-4-yl)-2-oxo-1,4-dihydro-2H-benzo[d][1,3]oxazin-7-yl)amino)-2-((S)-2,6-dioxopiperidin-3-yl)isoindoline-1,3-dione], the values for the DC50 at WIZ and at ZBTB7A were 19 nM and 15 nM, respectively. Besides, in the assay on HbF, the “HBF AUC” value is recorded as “++ (++ = 100 ≤ AUC < 150)”.

Turning to `COc1ccc(-c2cc3c(cc2Nc2cccc4c2C(=O)N([C@H]2CCC(=O)NC2=O)C4=O)N(C)C(=O)O[C@H]3C)cc1F` [Compound 71, 2-((S)-2,6-dioxopiperidin-3-yl)-4-(((S)-6-(3-fluoro-4-methoxyphenyl)-1,4-dimethyl-2-oxo-1,4-dihydro-2H-benzo[d][1,3]oxazin-7-yl)amino)isoindoline-1,3-dione], the DC50 on WIZ is 16 nM; on ZBTB7A, 10 nM. Further, the “HBF AUC” value with HbF is given as “++ (++ = 100 ≤ AUC < 150)”.

For the compound `Cc1cc(-c2cc3c(cc2Nc2cccc4c2C(=O)N([C@H]2CCC(=O)NC2=O)C4=O)N(C)C(=O)OC3C)cc(C)n1` (stereo partly drawn) [Compound 72, 4-((6-(2,6-dimethylpyridin-4-yl)-1,4-dimethyl-2-oxo-1,4-dihydro-2H-benzo[d][1,3]oxazin-7-yl)amino)-2-((S)-2,6-dioxopiperidin-3-yl)isoindoline-1,3-dione], the figures for the DC50 on WIZ and on ZBTB7A were 14 nM and 21 nM, respectively. The “HBF AUC” value in the assay on HbF is “+++ (+++ = AUC ≥ 150)”.

For the compound `Cc1cc(-c2cc3c(cc2Nc2cccc4c2C(=O)N([C@H]2CCC(=O)NC2=O)C4=O)N(C)C(=O)O[C@H]3C)c(F)cn1` [Compound 73, 2-((S)-2,6-dioxopiperidin-3-yl)-4-(((S)-6-(5-fluoro-2-methylpyridin-4-yl)-1,4-dimethyl-2-oxo-1,4-dihydro-2H-benzo[d][1,3]oxazin-7-yl)amino)isoindoline-1,3-dione], the DC50 was found to be 12 nM on WIZ and 11 nM on ZBTB7A. Further, in the assay on HbF, the “HBF AUC” value is recorded as “++ (++ = 100 ≤ AUC < 150)”.

On to `Cc1cc(-c2cc3c(cc2Nc2cccc4c2C(=O)N([C@H]2CCC(=O)NC2=O)C4=O)N(C)C(=O)O[C@@H]3C)c(F)cn1` [Compound 74, 2-((S)-2,6-dioxopiperidin-3-yl)-4-(((R)-6-(5-fluoro-2-methylpyridin-4-yl)-1,4-dimethyl-2-oxo-1,4-dihydro-2H-benzo[d][1,3]oxazin-7-yl)amino)isoindoline-1,3-dione], for which the DC50 on WIZ is 11 nM; on ZBTB7A, 10 nM. Also, the “HBF AUC” value in the assay on HbF is on record as “++ (++ = 100 ≤ AUC < 150)”.

On to `CC(=O)N1CCC(c2cc3c(cc2Nc2cccc4c2C(=O)N([C@H]2CCC(=O)NC2=O)C4=O)N(C)C(=O)OC3C)CC1` (stereo partly drawn) [Compound 75, 4-((6-(1-acetylpiperidin-4-yl)-1,4-dimethyl-2-oxo-1,4-dihydro-2H-benzo[d][1,3]oxazin-7-yl)amino)-2-((S)-2,6-dioxopiperidin-3-yl)isoindoline-1,3-dione], for which the DC50 came to 37 nM at WIZ and 75 nM on ZBTB7A. Moreover, in the assay on HbF, the “HBF AUC” value is given as “++ (++ = 100 ≤ AUC < 150)”.

In the case of `COc1cc(-c2c(Nc3cccc4c3C(=O)N([C@H]3CCC(=O)NC3=O)C4=O)cc3c(c2F)OCC(=O)N3C)c(F)cn1` [Compound 76, 2-((S)-2,6-dioxopiperidin-3-yl)-4-((8-fluoro-7-(5-fluoro-2-methoxypyridin-4-yl)-4-methyl-3-oxo-3,4-dihydro-2H-benzo[b][1,4]oxazin-6-yl)amino)isoindoline-1,3-dione], the DC50 came to 22 nM at WIZ and 65 nM at ZBTB7A. Moreover, the “HBF AUC” value in the assay with HbF is recorded as “+ (+ = 15 ≤ AUC < 100)”.

On to `Cc1cc(-c2c(Nc3cccc4c3C(=O)N(C3CCC(=O)NC3=O)C4=O)cc3c(c2F)OCC(=O)N3C)cc(C(F)F)n1` (stereo not drawn) [Compound 77, 4-((7-(2-(difluoromethyl)-6-methylpyridin-4-yl)-8-fluoro-4-methyl-3-oxo-3,4-dihydro-2H-benzo[b][1,4]oxazin-6-yl)amino)-2-(2,6-dioxopiperidin-3-yl)isoindoline-1,3-dione], for which the figures for the DC50 on WIZ and on ZBTB7A were 112 nM and 102 nM, respectively. For the same compound, the “HBF AUC” value with HbF is listed as “+ (+ = 15 ≤ AUC < 100)”.

In the case of `Cc1cc(-c2c(Nc3cccc4c3C(=O)N(C3CCC(=O)NC3=O)C4=O)cc3c(c2F)OCC(=O)N3C)cc(C(F)F)n1` (stereo not drawn) [Compound 78, 4-((7-(2-(difluoromethyl)-6-methylpyridin-4-yl)-8-fluoro-4-methyl-3-oxo-3,4-dihydro-2H-benzo[b][1,4]oxazin-6-yl)amino)-2-(2,6-dioxopiperidin-3-yl)isoindoline-1,3-dione], the DC50 at WIZ came to 76 nM; on ZBTB7A, 70 nM. Also, the “HBF AUC” value in the assay with HbF is recorded as “++ (++ = 100 ≤ AUC < 150)”.

`Cc1cc(-c2c(Nc3cccc4c3C(=O)N([C@H]3CCC(=O)NC3=O)C4=O)cc3c(c2F)C(C)OC(=O)N3C)ccn1` (stereo partly drawn) [Compound 79, 2-((S)-2,6-dioxopiperidin-3-yl)-4-((5-fluoro-1,4-dimethyl-6-(2-methylpyridin-4-yl)-2-oxo-1,4-dihydro-2H-benzo[d][1,3]oxazin-7-yl)amino)isoindoline-1,3-dione]: the DC50 was found to be 27 nM on WIZ and 28 nM on ZBTB7A. Moreover, in the assay with HbF, the “HBF AUC” value was “+ (+ = 15 ≤ AUC < 100)”.

The values above are taken from patent US20250333407A1, “Compounds and Their Use for Treatment of Hemoglobinopathies” (Bristol-Myers Squibb Company, priority 2024, published 2025).
